Test results as given in patent US20260115170A1, “Method of Ameliorating a Symptom or a Disease in a Human Caused by Fungus” (ISHIHARA SANGYO KAISHA, LTD., priority 2020, published 2026).
Values after ≈ are worked out from the molar mass of the structure shown.

What was measured:
[1] = tested on: Cryptococcus neoformans (TIMM1316 Strain); assay: Test Example 1-3 antimicrobial activity test, colony formation; assay type: cell-based; settings: at 20 ppm, Sabouraud medium, 37° C. for 48 hours
Method: (§1) Test Microbial Strain: Cryptococcus neoformans (TIMM1316 Strain) Test method: The Cryptococcus microbe cultured in an YPD liquid medium at 37° C. for 20 hours was recovered by centrifugation (3000 rpm, 5 minutes), washed twice with physiological saline, and then suspended in physiological saline, and a microbial liquid was prepared in such a way as to provide 2×10^3 cells/mL. 100 μL of the microbial liquid was applied to a Sabouraud medium to which the test compound dissolved in DMSO was added to have a predetermined concentration. After culturing at 37° C. for 48 hours, the presence or absence of colony formation was investigated.

[2] = tested on: Malassezia pachydermatis (TIMM10024); assay: Test Example 1-5 antimicrobial activity test, colony formation inhibition rate after 5 minutes contact; assay type: cell-based; settings: contact 5 minutes at 30° C., culturing 5 days
Method: Test Microbial Strain: Malassezia pachydermatis (TIMM10024)
(§2) The Malassezia microbe cultured at 32° C. for 20 hours in a Sabouraud liquid medium containing Tween80 (polyoxyethylene sorbitan monooleate: manufactured by Kanto Chemical Co., Inc.) (0.05% (v/v)) was recovered by centrifugation (3000 rpm, 5 minutes), washed twice with physiological saline, and then suspended in 10 ml of physiological saline, the resulting suspension was allowed to stand for 15 minutes, and then the supernatant was recovered. […] 100 μL of the microbial liquid resulting from the resuspension was applied to a Sabouraud medium containing Tween80 (0.05% (v/v)) and subjected to culturing at 30° C. for 5 days, then the number of colonies formed there (number of colonies formed in the inventive plot) and the number of colonies in a solvent to which the test compound was not added (the number of colonies formed in the non-agent treated plot) were measured, and the colony formation inhibition rate (%) was determined in the same manner as in Test Example 1-4.

[3] = tested on: Trichophyton rubrum (CBS118892 Strain); assay: Test Example 1-7 antimicrobial activity test, minimum inhibitory concentration; assay type: cell-based; settings: Sabouraud medium, 28° C. for 72 hours
Method: (§3) Test Microbial Strains: Trichophyton rubrum (CBS118892 Strain), T. interdegitale (TIMM20065 Strain), Microsporum canis (TIMM20080 Strain), and Arthroderma vanbreuseghemii (TIMM2789)
(§4) Each microbial strain was cultured in a Sabouraud medium containing 500 μg/mL of cycloheximide and 50 μg/mL of chloramphenicol at 28° C. for 8 days, then spores were collected in physiological saline containing Tween80 (polyoxyethylene sorbitan monooleate: manufactured by Kanto Chemical Co., Inc.) (0.05% (v/v)), and this was filtered through a cell strainer (φ40 μm). The spores were recovered from the filtrate by centrifugation (3500 rpm, 5 minutes) and washed twice with physiological saline, and then a spore suspension was prepared (1×10^7 spores/mL). 10 μL of the spore suspension was inoculated into a Sabouraud medium to which compound No. 1 dissolved in DMSO was added to have a predetermined concentration. After culturing at 28° C. for 72 hours, the presence or absence of microbial growth was investigated, and the minimum inhibitory concentration was determined. As a result, the minimum inhibitory concentration of compound No. 1 for each of the four microbial strains was 10 ppm.

[4] = tested on: Arthroderma vanbreuseghemii (TIMM2789); assay: as above; assay type: cell-based; settings: Trichophyton mentagrophytes, Sabouraud medium, 28° C. for 72 hours
Method: as §3, §4

[5] = tested on: Microsporum canis (TIMM20080 Strain); assay: as above; assay type: cell-based; settings: Sabouraud medium, 28° C. for 72 hours
Method: as §3, §4

[6] = tested on: Candida glabrata (TIMM6054 Strain); assay: Test Example 1-2 antimicrobial activity test, colony formation; assay type: cell-based; settings: at 200 ppm, YPD medium, 37° C. for 48 hours
Method: as §1, with “Candida glabrata (TIMM6054” for “Cryptococcus neoformans (TIMM1316”, “Candida” for “Cryptococcus”, “an YPD” for “a Sabouraud”

[7] = tested on: Candida albicans (TIMM1768 Strain); assay: Test Example 1-1 antimicrobial activity test, colony formation; assay type: cell-based; settings: at 50 ppm, Sabouraud medium, 37° C. for 48 hours
Method: as §1, with “Candida albicans (TIMM1768” for “Cryptococcus neoformans (TIMM1316”, “Candida” for “Cryptococcus”

[8] = tested on: Aspergillus fumigatus (TIMM0063 Strain); assay: Test Example 1-6 antimicrobial activity test, minimum inhibitory concentration; assay type: cell-based; settings: Sabouraud medium, 28° C. for 48 hours
Method: (§5) Test Microbial Strains: Aspergillus fumigatus (TIMM0063 Strain), and A. Niger (TIMM4968 Strain) Test method: The Aspergillus microbe was cultured in a PDA medium at 27° C. for 3 days, then spores were collected in physiological saline containing Tween80 (polyoxyethylene sorbitan monooleate: manufactured by Kanto Chemical Co., Inc.) (0.05% (v/v)), and this was filtered through a cell strainer (+40 μm). The spores were recovered from the filtrate by centrifugation (3500 rpm, 5 minutes) and washed twice with physiological saline, and then a spore suspension was prepared (1×10^7 spores/mL). 10 μL of the spore suspension was inoculated into a Sabouraud medium to which compound No. 1 dissolved in DMSO was added to have a predetermined concentration. After culturing at 28° C. for 48 hours, the presence or absence of microbial growth was investigated, and the minimum inhibitory concentration was determined.

[9] = tested on: A. Niger (TIMM4968 Strain); assay: as above; assay type: cell-based; settings: Aspergillus niger, Sabouraud medium, 28° C. for 48 hours
Method: as §5

[10] = tested on: T. interdegitale (TIMM20065 Strain); assay: Test Example 1-7 antimicrobial activity test, minimum inhibitory concentration; assay type: cell-based, Trichophyton interdegitale; settings: Trichophyton, Sabouraud medium, 28° C. for 72 hours
Method: as §3, §4

[11] = tested on: Malassezia Nana (CBS95574); assay: Test Example 1-4 antimicrobial activity test, colony formation inhibition rate after 5 minutes contact; assay type: cell-based; settings: contact 5 minutes at 30° C., culturing 5 days
Method: Test Microbial Strain: Malassezia Nana (CBS95574)
as §2, with “10 mL” for “10 ml”, “determined according to” for “determined in”, “the following expression.” for “the same manner as in Test Example 1-4.”

For `Cc1ccc(-c2nc(C#N)[nH]c2Cl)cc1` [Compound No. 1, 5-Chloro-4-(4-methylphenyl)-1H-imidazole-2-carbonitrile], the colony formation [1] was “completely suppressed colony formation”, the inhibition at 100 ppm ([2]; at 100 ppm) was 98.1% and the inhibition at 200 ppm ([2]; at 200 ppm) was 100%. For the same molecule, the MIC [3] was 10 µg/mL (≈ 45.9 µM), the MIC [4] was 10 µg/mL (≈ 45.9 µM) and the MIC [5] was 10 µg/mL (≈ 45.9 µM). The colony formation [6] was “completely suppressed colony formation”, the colony formation [7] was “completely inhibited colony formation” and the MIC [8] was 100 µg/mL (≈ 459 µM). For the same molecule, the MIC [9] was 100 µg/mL (≈ 459 µM), the MIC [10] was 10 µg/mL (≈ 45.9 µM) and the inhibition at 100 ppm ([11]; at 100 ppm) was 98.5%. The inhibition at 200 ppm ([11]; at 200 ppm) was 99.9%.
